This is an account of results in patent publication US4182897A, “Amino- or guanidino-phenylpropionic acid derivatives” (Torii & Co., Ltd., priority 1977, dated 1980).

One assay concerns the target Bovine Thrombin (Bos taurus, UniProt P00735). As to the kind of experiment: Inhibitory effect on ester-hydrolyzing activity of bovine thrombin (TAMe substrate). It counts as biochemical. The settings on record: for inhibitory action on thrombin: in vitro; for inhibition at 1000 µM: read-out: percent inhibition at 10^-3 M (thrombin). The procedure:
(4) Inhibitory Effect on Ester-Hydrolyzing Activity of Bovine Thrombin
It was measured by using 0.4 ml of bovine thrombin […], 0.02 M sodium phosphate buffer solution (pH 7.4) and TAMe as substrate following the method described in (1).

In the next assay the target is Human Plasma Kallikrein (Homo sapiens, UniProt P03952). As to the kind of experiment: Inhibitory effect on ester-hydrolyzing activity of human plasma kallikrein (TAMe substrate). The conditions noted are these: for inhibitory action on kallikrein: in vitro; for inhibition at 1000 µM: read-out: percent inhibition at 10^-3 M (kallikrein). It counts as biochemical. The procedure: (A) Determination of Enzyme-inhibitory Activity: The enzyme-inhibitory activities in vitro of the compounds of this invention were measured by the following procedure according to the method of M. Muramatsu et al. [[…]. Makino, Y. Hayashi and S. Fujii: J.

For another assay, the target named is T1, Trypsin (Bos taurus, UniProt P00760).
T1 sequence (P00760 24-246): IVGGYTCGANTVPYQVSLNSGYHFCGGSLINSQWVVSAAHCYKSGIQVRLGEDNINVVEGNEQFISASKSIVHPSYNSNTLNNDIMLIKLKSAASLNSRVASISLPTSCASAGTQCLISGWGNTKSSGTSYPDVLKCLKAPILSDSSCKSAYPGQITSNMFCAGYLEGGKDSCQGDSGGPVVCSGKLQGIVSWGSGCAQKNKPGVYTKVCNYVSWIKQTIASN
The assay is described as follows: Inhibitory effect on ester-hydrolyzing activity of trypsin (TAMe substrate). It counts as biochemical. The settings on record: for pIC50 / inhibitory action on trypsin: in vitro; for pIC50: tosylarginine methyl ester hydrolysis, read-out: ID50 (trypsin); for inhibition at 1000 µM: read-out: percent inhibition at 10^-3 M (trypsin). Here is the method: (A) Determination of Enzyme-inhibitory Activity: The enzyme-inhibitory activities in vitro of the compounds of this invention were measured by the following procedure according to the method of M. Muramatsu et al. [[…]. Makino, Y. Hayashi and S. Fujii: J. […] Then, 10 μmoles of the substrate, TAMe (tosylarginine methyl ester), was added, and incubation was performed at 37° C. for 30 minutes. After the incubation, 1.5 ml of 2 M alkaline hydroxylamine was added and thoroughly mixed, and allowed to stand at room temperature for 15 minutes.

A further assay has as its target Human Plasmin (Homo sapiens, UniProt P00747). The assay is described as follows: Inhibitory effect on ester-hydrolyzing activity of human plasmin (TAMe substrate). It is filed as biochemical. The conditions noted are these: for inhibitory action on plasmin: in vitro; for inhibition at 1000 µM: read-out: percent inhibition at 10^-3 M (plasmin). The procedure: (A) Determination of Enzyme-inhibitory Activity: The enzyme-inhibitory activities in vitro of the compounds of this invention were measured by the following procedure according to the method of M. Muramatsu et al. [[…]. Makino, Y. Hayashi and S. Fujii: J. […] (2) Inhibitory Effect on Ester-hydrolyzing Activity of Human Plasmin It was measured by using 0.1 ml of plasmin (generated by activation of plasminogen with streptokinase) and TAMe as substrate following the method described in (1).

For another assay, the target named is T2, Human Cl Esterase (Homo sapiens, UniProt P09871).
T2 sequence (P09871 438-688 limits assumed): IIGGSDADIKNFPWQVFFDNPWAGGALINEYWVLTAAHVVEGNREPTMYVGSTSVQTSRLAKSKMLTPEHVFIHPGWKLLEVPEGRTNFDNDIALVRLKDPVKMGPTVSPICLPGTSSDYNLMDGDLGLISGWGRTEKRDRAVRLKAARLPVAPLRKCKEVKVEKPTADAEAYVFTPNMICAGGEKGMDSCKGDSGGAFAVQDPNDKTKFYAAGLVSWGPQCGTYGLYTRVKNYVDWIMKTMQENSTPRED
T2 sequence (P09871 16-437 partner limits assumed): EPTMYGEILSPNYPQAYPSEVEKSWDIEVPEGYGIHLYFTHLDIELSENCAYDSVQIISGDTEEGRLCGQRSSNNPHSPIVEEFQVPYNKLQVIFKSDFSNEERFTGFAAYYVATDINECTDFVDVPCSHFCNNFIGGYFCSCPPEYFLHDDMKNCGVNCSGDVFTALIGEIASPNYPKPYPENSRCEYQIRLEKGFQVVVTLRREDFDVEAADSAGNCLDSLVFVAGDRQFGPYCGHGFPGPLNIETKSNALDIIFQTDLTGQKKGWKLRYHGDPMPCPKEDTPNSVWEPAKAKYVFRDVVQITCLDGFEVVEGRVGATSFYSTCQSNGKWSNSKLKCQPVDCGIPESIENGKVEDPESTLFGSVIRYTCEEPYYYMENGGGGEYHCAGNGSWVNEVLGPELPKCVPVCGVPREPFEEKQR
The assay is described as follows: Inhibitory effect on ester-hydrolyzing activity of human Cl esterase (ATEe substrate). The conditions noted are these: for inhibitory action on Cl esterase / pIC50: in vitro; for inhibition at 1000 µM: read-out: percent inhibition at 10^-3 M (Cl esterase); for pIC50: acetyltyrosine ethyl ester hydrolysis, read-out: ID50 (Cl esterase). It counts as biochemical.

Assay [1] deals with collagen induced platelet aggregation of rabbit PRP. The assay is described as follows: Inhibition of collagen induced platelet aggregation of rabbit PRP. It counts as cell-based. The settings on record: Oryctolagus cuniculus; for inhibition at 5 µg/mL: 5.0 μg/ml; for inhibition at 10 µg/mL: 10.0 μg/ml; for inhibition at 2.5 µg/mL: 2.5 μg/ml. Here is the method: (B) Determination of Inhibitory Activity on Collagen Induced Platelet Aggregation:
According to the method of Born et al. [Born, G. V. R.: J. Physiol., 168. 178 (1963)], the platelet aggregation inhibition (%) was determined at various concentrations of compounds by the following procedure:
Rabbit PRP (platelet rich plasma), 0.9 ml, obtained from sodium citrate-added blood, was taken into a polyethylene tube and incubated at 37° C. for 1 minute, and then 10 μl of a compound solution or physiological saline as control, was added.
Subsequently, 0.1 ml of collagen solution was added, and change in absorbance of PRP, resulting from the progress of platelet aggregation, was determined by means of platelet aggregation meter and recorded.
Percent inhibition was calculated according to the following equation: [formula]

pIC50: −log10 of the molar value. Where a name gives a salt, the structure may show the parent alone. Read-outs that look alike come from different tables or passages of the source.

Sequence of Human Plasmin (P00747 581-810 limits assumed): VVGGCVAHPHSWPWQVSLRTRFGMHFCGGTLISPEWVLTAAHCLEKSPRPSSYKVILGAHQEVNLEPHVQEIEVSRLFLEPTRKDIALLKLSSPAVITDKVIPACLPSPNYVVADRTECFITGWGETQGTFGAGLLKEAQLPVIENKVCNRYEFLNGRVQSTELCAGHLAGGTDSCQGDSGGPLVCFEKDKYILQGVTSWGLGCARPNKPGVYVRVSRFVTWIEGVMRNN
Sequence of Human Plasmin (P00747 97-580 partner limits assumed): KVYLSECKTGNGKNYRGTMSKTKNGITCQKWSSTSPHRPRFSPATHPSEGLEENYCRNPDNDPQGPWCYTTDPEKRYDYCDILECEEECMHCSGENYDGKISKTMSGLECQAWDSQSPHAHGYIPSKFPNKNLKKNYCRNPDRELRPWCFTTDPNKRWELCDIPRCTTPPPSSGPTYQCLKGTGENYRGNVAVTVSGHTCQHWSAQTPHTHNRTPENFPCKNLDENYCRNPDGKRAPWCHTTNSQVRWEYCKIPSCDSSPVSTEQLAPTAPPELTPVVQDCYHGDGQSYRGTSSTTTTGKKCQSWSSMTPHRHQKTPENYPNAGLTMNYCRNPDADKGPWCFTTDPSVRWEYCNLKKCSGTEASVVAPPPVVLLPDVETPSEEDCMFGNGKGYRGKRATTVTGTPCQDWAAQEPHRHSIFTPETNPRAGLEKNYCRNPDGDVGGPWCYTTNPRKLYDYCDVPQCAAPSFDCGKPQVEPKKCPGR
Sequence of Human Plasma Kallikrein (P03952 391-638 limits assumed): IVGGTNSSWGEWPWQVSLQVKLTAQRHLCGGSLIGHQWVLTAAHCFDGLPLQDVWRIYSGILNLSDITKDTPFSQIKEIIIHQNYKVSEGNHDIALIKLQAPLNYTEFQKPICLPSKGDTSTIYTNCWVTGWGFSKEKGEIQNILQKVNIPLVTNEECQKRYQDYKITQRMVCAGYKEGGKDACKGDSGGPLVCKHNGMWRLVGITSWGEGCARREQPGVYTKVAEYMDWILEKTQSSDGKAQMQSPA
Sequence of Human Plasma Kallikrein (P03952 20-390 partner limits assumed): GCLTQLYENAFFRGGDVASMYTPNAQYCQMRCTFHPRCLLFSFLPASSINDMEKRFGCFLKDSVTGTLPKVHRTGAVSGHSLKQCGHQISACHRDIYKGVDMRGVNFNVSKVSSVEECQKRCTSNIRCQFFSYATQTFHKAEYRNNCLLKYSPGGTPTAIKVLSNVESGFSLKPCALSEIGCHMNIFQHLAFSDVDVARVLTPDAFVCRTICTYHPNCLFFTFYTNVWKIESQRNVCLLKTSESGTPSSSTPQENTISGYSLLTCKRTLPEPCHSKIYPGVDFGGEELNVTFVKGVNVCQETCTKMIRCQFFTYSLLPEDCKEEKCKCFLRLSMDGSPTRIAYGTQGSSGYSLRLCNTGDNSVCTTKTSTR
Protocol for Human Cl Esterase: It was measured by using 0.1 ml of Cl esterase, 0.1 ml of 0.02 M sodium phosphate buffer solution (pH 7.4) and 10 μmoles of ATEe (acetyltyrosine ethyl ester) as substrate following the method described in (1).

Take `CCOC(=O)c1ccc(OC(=O)CCc2ccc(NC(=N)N)cc2)cc1.Cl` [Compound No. 47, p-Ethoxycarbonylphenyl β-(p-guanidinophenyl)-propionate hydrochloride]: on Bovine Thrombin, the “inhibitory action on thrombin” value is “no inhibitory action” and the inhibition at 1000 µM was determined as 12.3%. At Human Plasma Kallikrein, the “inhibitory action on kallikrein” value is on record as “no inhibitory action” and the inhibition at 1000 µM was 36%. For the same compound, the pIC50 at Trypsin was 4.11. Besides, at Human Plasmin, the “inhibitory action on plasmin” value was “no inhibitory action” and the inhibition at 1000 µM is below 10%. In addition, on Human Cl Esterase, the “inhibitory action on Cl esterase” value is reported as “no inhibitory action” and the inhibition at 1000 µM is below 10%.

For the compound `CCC(Cc1cccc(N)c1)C(=O)Oc1ccc(OC)cc1` (stereo not drawn) [Compound No. 4, p-Methoxyphenyl α-ethyl-β-(m-aminophenyl)-propionate hydrochloride], the inhibition at 1000 µM at Bovine Thrombin was below 10%; on Human Plasma Kallikrein, below 10%; at Human Plasmin, below 10%; at Human Cl Esterase, 14.8%. Further, the pIC50 at Trypsin (30 min) is 3.40.

With `CC(=O)Oc1ccccc1C(=O)O` [aspirin, reference compound], in assay [1], the inhibition at 5 µg/mL was 78% and at 10 µg/mL the inhibition was 100%.

As for `CCOC(=O)c1ccc(OC(=O)C(CC)Cc2ccc(N)cc2)cc1` (stereo not drawn) [compound 36, p-ethoxycarbonylphenyl α-ethyl-β-(p-aminophenyl)-propionate], the inhibition at 1000 µM at Bovine Thrombin is 25.3%; on Human Plasma Kallikrein, 15.9%; on Human Plasmin, below 10%; on Human Cl Esterase, below 10%. For the same compound, the pIC50 at Trypsin was 3.77.

For `Cc1ccc(OC(=O)C(C)Cc2ccc(NC(=N)N)cc2)cc1` (stereo not drawn) [Compound No. 45, p-Methylphenyl α-methyl-β-(p-guanidinophenyl)-propionate hydrochloride], the inhibition at 1000 µM at Bovine Thrombin was below 10%; on Human Plasma Kallikrein, below 10%; on Trypsin, 21.4%; at Human Plasmin it was below 10%. Further, the pIC50 at Human Cl Esterase was 3.11.

Turning to `CCCCOc1ccc(OC(=O)CCc2ccc(NC(=N)N)cc2)cc1` [compound 71, p-n-butoxyphenyl β-(p-guanidinophenyl)-propionate], the inhibition at 1000 µM on Bovine Thrombin is below 10%; at Human Plasma Kallikrein, 1.5%; on Human Plasmin it was 20%; at Human Cl Esterase it was below 10%. At Trypsin, the pIC50 is 3.18.

On to `CC(Cc1ccc(NC(=N)N)cc1)C(=O)Oc1ccc(Cl)cc1` (stereo not drawn) [compound 52, p-chlorophenyl α-methyl-β-(p-guanidinophenyl)-propionate], for which the results for the inhibition at 1000 µM on Bovine Thrombin, at Human Plasma Kallikrein and at Human Plasmin were below 10%, 38.4% and 18.8%, respectively. For the same compound, the values for the pIC50 at Trypsin and on Human Cl Esterase were 3.31 and 4.25, respectively.

In the case of `CC(Cc1cccc(NC(=N)N)c1)C(=O)Oc1cccc2ccccc12` (stereo not drawn) [compound 50, 1-naphthyl α-methyl-β-(m-guanidinophenyl)-propionate], testing at 1 µg/mL in assay [1] (1.0 μg/ml) gave an inhibition of 4%. Also, in assay [1], the inhibition at 2.5 µg/mL came to 100%. The same compound registered an inhibition at 5 µg/mL in assay [1] of 100%. The compound further yielded an inhibition at 10 µg/mL in assay [1] of 100%. For the same compound, the results for the inhibition at 1000 µM on Bovine Thrombin and at Human Plasmin were below 10% and 42%, respectively. The pIC50 at Trypsin was 4.24; on Human Cl Esterase, 3.85.

At Bovine Thrombin, `Cl.Nc1ccc(CCC(=O)Oc2ccccc2)cc1` [Compound No. 3, Phenyl β-(p-aminophenyl)-propionate hydrochloride] had a pIC50 of 3.54. Moreover, on Human Plasma Kallikrein, the “inhibitory action on kallikrein” value is given as “no inhibitory action” and the inhibition at 1000 µM is below 10%. On Trypsin, the “inhibitory action on trypsin” value is listed as “no inhibitory action” and the inhibition at 1000 µM was below 10%. For the same compound, on Human Plasmin, the “inhibitory action on plasmin” value is recorded as “no inhibitory action” and the inhibition at 1000 µM was below 10%. In addition, on Human Cl Esterase, the “inhibitory action on Cl esterase” value is on record as “no inhibitory action” and the inhibition at 1000 µM was below 10%.

Consider `CC(Cc1cccc(NC(=N)N)c1)C(=O)Oc1ccccc1.O=C(O)O` (stereo not drawn) [Compound No. 46, Phenyl α-methyl-β-(m-guanidinophenyl)-propionate carbonate], for which, on Bovine Thrombin, the “inhibitory action on thrombin” value is listed as “no inhibitory action” and the inhibition at 1000 µM is below 10%. In addition, at Human Plasma Kallikrein, the “inhibitory action on kallikrein” value is reported as “no inhibitory action” and the inhibition at 1000 µM worked out at 12.9%. For the same compound, on Trypsin, the “inhibitory action on trypsin” value is on record as “no inhibitory action” and the inhibition at 1000 µM came to 12.2%. Besides, on Human Plasmin, the “inhibitory action on plasmin” value is “no inhibitory action” and the inhibition at 1000 µM was below 10%. The pIC50 on Human Cl Esterase is 3.51.

Take `CC(Cc1cccc(N)c1)C(=O)Oc1ccc(Cl)cc1` (stereo not drawn) [compound 5, p-chlorophenyl α-methyl-β-(m-aminophenyl)-propionate]: the inhibition at 1000 µM on Bovine Thrombin, on Human Plasma Kallikrein, at Human Plasmin and on Human Cl Esterase was below 10% throughout. In addition, the pIC50 at Trypsin was 5.00.

In the case of `CC(Cc1cccc(NC(=N)N)c1)C(=O)Oc1ccc(Cl)cc1` (stereo not drawn) [Compound No. 44, p-Chlorophenyl α-methyl-β-(m-guanidinophenyl)-propionate carbonate], the pIC50 at Human Cl Esterase was 3.60.

In assay [1], `CCC(Cc1cccc(N)c1)C(=O)Oc1cccc2ccccc12` (stereo not drawn) [Compound No. 7, 1-naphthyl α-ethyl-β-(m-aminophenyl)-propionate] came in with an inhibition at 2.5 µg/mL of 37%, an inhibition at 5 µg/mL of 84% and an inhibition at 10 µg/mL of 100%. Also, the inhibition at 1000 µM on Bovine Thrombin was below 10%. Also, the pIC50 on Trypsin was 5.00. The inhibition at 1000 µM at Human Plasmin was below 10%. Moreover, the inhibition at 1000 µM on Human Cl Esterase was 11.7%.

Regarding `CC(Cc1ccc(N)cc1)C(=O)Oc1ccc(Cl)cc1` (stereo not drawn) [Compound No. 2, p-Chlorophenyl α-methyl-β-(p-aminophenyl)-propionate hydrochloride], the pIC50 on Trypsin was 3.48.

As for `CCC(Cc1cccc(NC(=N)N)c1)C(=O)Oc1ccccc1` (stereo not drawn) [compound 65, phenyl α-ethyl-β-(m-guanidinophenyl)-propionate], the inhibition at 1000 µM on Bovine Thrombin was 16.8%; at Human Plasma Kallikrein, 15.6%; at Trypsin it was 35%; on Human Plasmin it was below 10%. The pIC50 at Human Cl Esterase is 4.15.

A word on the inhibition: it is how much of the control response was suppressed.
